Measurements as given in publication PMC9694798, “Resveratrol Analogues as Dual Inhibitors of Monoamine Oxidase B and Carbonic Anhydrase VII: A New Multi-Target Combination for Neurodegenerative Diseases?” (Molecules, 2022).
Several values for one entry are separate records, joined by “and”; a condition that tells them apart may be missing. Equal values may be shown once.

Tests used:
hCA I = biological target: T1, hCA I (Homo sapiens, UniProt P00915); experiment: CA inhibition, stopped-flow CO2 hydration assay; format: biochemical; settings: for Ki: stopped-flow technique, mean of three experiments, errors ±5–10%
T1 construct: His-tag (N); made in house; host or cells: Escherichia coli BL21 (DE3)

hCA VA = biological target: T2, hCA VA (Homo sapiens, UniProt P35218); experiment: CA inhibition, stopped-flow CO2 hydration assay; format: biochemical; settings: stopped-flow technique; mean of three experiments, errors ±5–10%
T2 construct: His-tag (N); made in house; host or cells: Escherichia coli BL21 (DE3)

Recombinant human MAO-B = biological target: T3, Recombinant human MAO-B (Homo sapiens, UniProt P27338); experiment: In vitro MAO-B inhibition assay (kynuramine, fluorescence); format: biochemical; settings: kynuramine substrate, mean ± S.D. of three independent experiments
T3 construct: purchased Sigma-Aldrich
T3 sequence (P27338 1-520): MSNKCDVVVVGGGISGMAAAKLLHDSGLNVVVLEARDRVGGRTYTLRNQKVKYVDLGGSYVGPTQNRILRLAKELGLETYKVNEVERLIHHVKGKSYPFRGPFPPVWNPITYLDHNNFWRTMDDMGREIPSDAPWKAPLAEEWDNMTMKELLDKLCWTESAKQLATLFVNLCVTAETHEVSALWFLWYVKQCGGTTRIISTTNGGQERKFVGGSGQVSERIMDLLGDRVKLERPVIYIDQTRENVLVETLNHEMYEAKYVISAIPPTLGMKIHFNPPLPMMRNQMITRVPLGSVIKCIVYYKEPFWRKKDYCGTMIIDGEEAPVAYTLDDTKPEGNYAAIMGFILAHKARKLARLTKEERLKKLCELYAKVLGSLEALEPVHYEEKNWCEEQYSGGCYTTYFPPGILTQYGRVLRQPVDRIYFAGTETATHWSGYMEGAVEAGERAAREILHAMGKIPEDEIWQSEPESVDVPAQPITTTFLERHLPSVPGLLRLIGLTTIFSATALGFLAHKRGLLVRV

Recombinant human MAO-A = biological target: T4, Recombinant human MAO-A (Homo sapiens, UniProt P21397); experiment: In vitro MAO-A inhibition assay (kynuramine, fluorescence); format: biochemical; settings: kynuramine substrate, mean ± S.D. of three independent experiments
T4 construct: purchased Sigma-Aldrich
T4 sequence (P21397 1-527): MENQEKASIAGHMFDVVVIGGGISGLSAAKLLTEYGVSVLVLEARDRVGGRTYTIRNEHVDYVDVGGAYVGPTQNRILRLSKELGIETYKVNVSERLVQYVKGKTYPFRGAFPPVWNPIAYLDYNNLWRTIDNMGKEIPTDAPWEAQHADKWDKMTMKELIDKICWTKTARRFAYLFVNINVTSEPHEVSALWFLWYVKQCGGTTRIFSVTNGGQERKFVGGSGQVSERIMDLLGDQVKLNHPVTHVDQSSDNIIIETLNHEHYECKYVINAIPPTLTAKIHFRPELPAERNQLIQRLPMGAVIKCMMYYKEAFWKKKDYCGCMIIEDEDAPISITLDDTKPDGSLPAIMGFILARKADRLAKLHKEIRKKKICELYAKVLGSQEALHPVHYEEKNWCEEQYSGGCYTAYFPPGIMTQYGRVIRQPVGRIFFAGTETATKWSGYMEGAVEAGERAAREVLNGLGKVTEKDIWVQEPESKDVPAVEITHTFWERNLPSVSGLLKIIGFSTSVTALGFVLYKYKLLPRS

hCA VII = hCA VII (Homo sapiens, UniProt P43166); experiment: CA inhibition, stopped-flow CO2 hydration assay
hCA VB = biological target: T5, hCA VB (Homo sapiens, UniProt Q9Y2D0); experiment: CA inhibition, stopped-flow CO2 hydration assay; format: biochemical; settings: stopped-flow technique; mean of three experiments, errors ±5–10%
T5 construct: His-tag (N); made in house; host or cells: Escherichia coli BL21 (DE3)

hCA XII = biological target: T6, hCA XII (Homo sapiens, UniProt O43570); experiment: CA inhibition, stopped-flow CO2 hydration assay; format: biochemical; settings: stopped-flow technique; mean of three experiments, errors ±5–10%
T6 construct: His-tag (N); made in house; host or cells: Escherichia coli BL21 (DE3)

hCA II = biological target: T7, hCA II (Homo sapiens, UniProt P00918); experiment: CA inhibition, stopped-flow CO2 hydration assay; format: biochemical; settings: for Ki: stopped-flow technique, mean of three experiments, errors ±5–10%
T7 construct: His-tag (N); made in house; host or cells: Escherichia coli BL21 (DE3)

hCA IX = biological target: T8, hCA IX (Homo sapiens, UniProt Q16790); experiment: CA inhibition, stopped-flow CO2 hydration assay; format: biochemical; settings: stopped-flow technique; mean of three experiments, errors ±5–10%
T8 construct: His-tag (N); made in house; host or cells: Escherichia coli BL21 (DE3)

MAO-B = tested on: MAO-B; design: method as in PMID 7699569; settings: cited from earlier work
MAO = tested on: MAO; design: method as in PMID 30809547; settings: cited from earlier work

T6 sequence (O43570 25-354): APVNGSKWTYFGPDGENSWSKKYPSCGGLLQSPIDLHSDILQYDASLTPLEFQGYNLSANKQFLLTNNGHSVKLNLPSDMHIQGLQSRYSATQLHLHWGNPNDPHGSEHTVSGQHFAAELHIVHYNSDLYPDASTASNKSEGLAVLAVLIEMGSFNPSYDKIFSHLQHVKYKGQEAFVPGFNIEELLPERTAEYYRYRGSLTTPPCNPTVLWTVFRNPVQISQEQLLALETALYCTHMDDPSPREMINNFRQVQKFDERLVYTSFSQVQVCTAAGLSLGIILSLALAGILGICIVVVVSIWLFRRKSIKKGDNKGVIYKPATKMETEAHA
T1 sequence (P00915 whole entry): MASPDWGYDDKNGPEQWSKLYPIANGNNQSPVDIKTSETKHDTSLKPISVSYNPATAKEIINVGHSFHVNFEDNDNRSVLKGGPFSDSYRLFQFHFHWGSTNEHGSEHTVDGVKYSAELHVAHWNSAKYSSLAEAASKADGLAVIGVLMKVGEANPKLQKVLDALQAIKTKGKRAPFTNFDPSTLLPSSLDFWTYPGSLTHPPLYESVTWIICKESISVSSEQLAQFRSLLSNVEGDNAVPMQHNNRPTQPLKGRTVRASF
T2 sequence (P35218 39-305): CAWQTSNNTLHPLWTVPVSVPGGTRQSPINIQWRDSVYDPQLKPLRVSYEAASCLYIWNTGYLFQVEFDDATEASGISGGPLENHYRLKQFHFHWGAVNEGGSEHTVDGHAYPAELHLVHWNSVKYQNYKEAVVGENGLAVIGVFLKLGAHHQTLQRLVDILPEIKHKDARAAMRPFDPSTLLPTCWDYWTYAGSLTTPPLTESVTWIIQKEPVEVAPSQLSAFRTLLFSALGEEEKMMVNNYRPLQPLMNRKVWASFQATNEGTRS
Chain of hCA VII (P43166 whole entry): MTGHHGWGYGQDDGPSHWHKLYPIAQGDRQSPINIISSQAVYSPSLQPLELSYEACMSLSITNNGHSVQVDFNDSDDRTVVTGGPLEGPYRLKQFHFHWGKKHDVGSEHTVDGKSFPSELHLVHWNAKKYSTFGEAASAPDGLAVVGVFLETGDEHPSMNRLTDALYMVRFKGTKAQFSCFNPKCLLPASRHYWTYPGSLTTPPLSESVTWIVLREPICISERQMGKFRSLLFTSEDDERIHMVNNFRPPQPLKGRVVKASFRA
T5 sequence (Q9Y2D0 34-317): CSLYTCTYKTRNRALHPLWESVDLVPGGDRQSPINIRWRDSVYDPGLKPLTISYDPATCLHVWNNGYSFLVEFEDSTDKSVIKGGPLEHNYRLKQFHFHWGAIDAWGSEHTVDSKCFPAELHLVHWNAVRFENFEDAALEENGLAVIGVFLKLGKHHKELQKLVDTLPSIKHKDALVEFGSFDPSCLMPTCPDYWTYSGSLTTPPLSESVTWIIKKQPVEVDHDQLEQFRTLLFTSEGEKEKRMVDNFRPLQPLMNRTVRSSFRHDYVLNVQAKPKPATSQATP

SMILES	Ki (hCA I) [µM]	Ki (hCA VA) [µM]	IC50 (Recombinant human MAO-B) [µM]	IC50 (Recombinant human MAO-A)	Ki (hCA VII) [µM]	Ki (hCA VB) [µM]	Ki (hCA XII) [µM]	Ki (hCA II) [µM]	Ki (hCA IX) [µM]	inhibitory activities against hCA I, VA, and VB lower than against hCA VII (hCA I; hCA I, VA, VB vs hCA VII)	inhibition potency against hCA II weaker than against hCA VII (hCA II; hCA II vs hCA VII)	IC50 (MAO-B) [µM]	mechanism of MAO inhibition (MAO)
COc1ccc(/C=C/c2ccc(O)cc2)cc1 [Compound 7]	> 100	> 100	0.185 ± 0.009	2.71 ± 0.016 µM	9.4	9.7	> 100	> 100	81.8	–	–	–	–
Oc1ccc(/C=C/c2ccc(Cl)cc2Cl)cc1 [Compound 3]	> 100	86	1.52 ± 0.067	1.79 ± 0.095 µM	7.5	> 100	> 100	> 100	> 100	–	–	–	–
Oc1ccc(C=Cc2cc(O)cc(O)c2)cc1 [RSV, 3,4′,5-trihydroxystilbene, reference compound]	2.2	4.7	> 100	–	4.3	4.6	0.9	2.8	0.8	–	–	–	competitive

Further lines, with some results ahead:

Ki (hCA I) [µM]	Ki (hCA VA) [µM]	IC50 (Recombinant human MAO-B) [µM]	IC50 (Recombinant human MAO-A)	Ki (hCA VII) [µM]	Ki (hCA VB) [µM]	Ki (hCA XII) [µM]	Ki (hCA II) [µM]	Ki (hCA IX) [µM]	inhibitory activities against hCA I, VA, and VB lower than against hCA VII (hCA I; hCA I, VA, VB vs hCA VII)	inhibition potency against hCA II weaker than against hCA VII (hCA II; hCA II vs hCA VII)	SMILES	IC50 (MAO-B) [µM]	mechanism of MAO inhibition (MAO)
> 100	> 100	0.103 ± 0.003	2.01 ± 0.033 µM	7.4	9.5	> 100	75.3	> 100	–	–	N#Cc1ccc(/C=C/c2ccc(O)cc2)cc1 [Compound 6]	–	–
> 100	83	14.2 ± 1.82	9.77 ± 0.553 µM	> 100	8.7	> 100	43.4	94.6	–	–	Oc1ccc(/C=C/c2ccc(C(F)(F)F)cc2)cc1 [Compound 5]	–	–
> 100	37.2	1.44 ± 0.035	2.02 ± 0.175 µM	4.2	32.2	4.5	> 100	81.1	–	–	Oc1ccc(/C=C/c2ccc(Cl)cc2Cl)cc1Cl [Compound 2]	–	–
89.5	9	0.156 ± 0.009	3.06 ± 0.1 µM	> 100	84.5	2.7	35.8	23.6	–	–	Oc1ccc(/C=C/c2ccccc2)cc1Cl [Compound 1]	–	–
86.8	70.9	0.011 ± 0.0065	0.43 µM and 0.433 µM	0.7	36.2	6.9	15.6	17.4	up to 120 fold	about 22 fold	Oc1ccc(/C=C/c2ccc(C(F)(F)F)cc2)cc1Cl [Compound 4]	–	–
